Measured values as given in patent US9315490B2, “2,5-substituted pyrimidines” (Grünenthal GmbH, priority 2014, dated 2016).

What was measured:
[1] = molecular target: T1, human PDE4B1 (Homo sapiens, UniProt Q07343); experiment: cAMP HTRF assay to determine the activity of hPDE4B1; assay type: biochemical; settings: inhibition of PDE4B at a test concentration of 1 μM
T1 construct: host or cells: Sf9 cells
Outline: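 […], using HTRF quantitation of residual cAMP after 1 mM IBMX stop and 60 min detection. Enzyme was Sf9-expressed human PDE4B1 incubated 30 min at room temperature with 40 nM final cAMP at pH 7.8.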

T1 sequence (Q07343 whole entry): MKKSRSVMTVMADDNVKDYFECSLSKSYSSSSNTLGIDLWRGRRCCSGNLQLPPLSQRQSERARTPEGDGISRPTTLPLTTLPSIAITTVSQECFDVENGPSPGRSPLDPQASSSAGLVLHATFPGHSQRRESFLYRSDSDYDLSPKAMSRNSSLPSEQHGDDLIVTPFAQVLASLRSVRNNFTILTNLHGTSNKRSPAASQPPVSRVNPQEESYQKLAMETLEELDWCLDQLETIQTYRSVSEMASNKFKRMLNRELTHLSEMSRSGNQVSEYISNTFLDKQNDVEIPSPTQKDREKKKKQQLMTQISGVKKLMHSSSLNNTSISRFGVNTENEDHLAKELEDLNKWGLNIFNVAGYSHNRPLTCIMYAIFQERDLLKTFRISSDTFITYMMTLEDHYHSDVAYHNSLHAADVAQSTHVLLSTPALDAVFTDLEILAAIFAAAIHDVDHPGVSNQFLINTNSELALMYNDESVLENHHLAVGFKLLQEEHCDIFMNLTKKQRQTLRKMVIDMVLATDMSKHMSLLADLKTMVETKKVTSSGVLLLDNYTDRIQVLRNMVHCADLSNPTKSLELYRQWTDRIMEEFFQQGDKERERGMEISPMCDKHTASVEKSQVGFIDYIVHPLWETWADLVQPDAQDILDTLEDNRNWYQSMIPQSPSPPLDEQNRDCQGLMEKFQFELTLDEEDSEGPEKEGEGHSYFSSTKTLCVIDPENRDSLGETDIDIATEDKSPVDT

SMILES | melting point | inhibition at 1 µM [1]
C[S+]([O-])c1cn(-c2ncc(-c3ccnc(F)c3)cn2)c2cc(C(=O)N3CCOCC3)ccc12 (stereo not drawn) [Example 187, (1-(5-(2-Fluoropyridin-4-yl)pyrimidin-2-yl)-3-(methylsulfinyl)-1H-indol-6-yl)(morpholino)methanone] | 285 to 288 °C | 56%
CC[S+]([O-])c1cn(-c2ncc(-c3ccccc3F)cn2)c2cc(C(=O)N3CCOCC3)ccc12 (stereo not drawn) [Example 29, (3-(Ethylsulfinyl)-1-(5-(2-fluorophenyl)pyrimidin-2-yl)-1H-indol-6-yl)(morpholino)methanone] | 122 to 126 °C | 57%
C[S+]([O-])c1cn(-c2ncc(-c3cc(C(N)=O)ccn3)cn2)c2cc(C(=O)N3CCOCC3)ccc12 (stereo not drawn) [Example 202, 2-(2-(3-(Methylsulfinyl)-6-(morpholine-4-carbonyl)-1H-indol-1-yl)pyrimidin-5-yl)isonicotinamide] | 303 to 306 °C | 94%
C[S+]([O-])c1cn(-c2ncc(-c3cc(N)ccc3F)cn2)c2cc(C(=O)N3CCOCC3)ccc12 (stereo not drawn) [Example 146, (1-(5-(5-Amino-2-fluorophenyl)pyrimidin-2-yl)-3-(methylsulfinyl)-1H-indol-6-yl)(morpholino)methanone] | 188 to 192 °C | 118%
C[S+]([O-])c1cn(-c2ncc(-c3cccnn3)cn2)c2cc(C(=O)N3CCOCC3)ccc12 (stereo not drawn) [Example 144, (3-(Methylsulfinyl)-1-(5-(pyridazin-3-yl)pyrimidin-2-yl)-1H-indol-6-yl)(morpholino)methanone] | 261 to 265 °C | 47%
C[S+]([O-])c1cn(-c2ncc(-c3cccc(C(=O)O)c3)cn2)c2cc(C(=O)N3CCOCC3)ccc12 (stereo not drawn) [Example 193, 3-(2-(3-(Methylsulfinyl)-6-(morpholine-4-carbonyl)-1H-indol-1-yl)pyrimidin-5-yl)benzoic acid] | 230 to 235 °C | 91%
C[S+]([O-])c1cn(-c2ncc(-c3cc(N)ccn3)cn2)c2cc(C(=O)N3CCOCC3)ccc12 (stereo not drawn) [Example 209, 2-(1-(5-(4-Aminopyridin-2-yl)pyrimidin-2-yl)-3-(methylsulfinyl)-1H-indol-6-yl)(morpholino)methanone] | 293 to 297 °C | 101%
CN(C)c1ccnc(-c2cnc(-n3cc([S+](C)[O-])c4ccc(C(=O)N5CCOCC5)cc43)nc2)c1 (stereo not drawn) [Example 210, (1-(5-(4-(Dimethylamino)pyridin-2-yl)pyrimidin-2-yl)-3-(methylsulfinyl)-1H-indol-6-yl)(morpholino)methanone] | 213 to 217 °C | 96%
O=C(c1ccc2c(CO)cn(-c3ncc(-c4ccccc4F)cn3)c2c1)N1CCOCC1 [Example 27, (1-(5-(2-Fluorophenyl)pyrimidin-2-yl)-3-(hydroxymethyl)-1H-indol-6-yl)(morpholino)methanone] | 190 to 194 °C | 79%
C[S+]([O-])c1cn(-c2ncc(-c3cc(C#N)ccc3F)cn2)c2cc(C(=O)N3CCOCC3)ccc12 (stereo not drawn) [Example 2, 4-Fluoro-3-(2-(3-(methylsulfinyl)-6-(morpholine-4-carbonyl)-1H-indol-1yl)pyrimidin-5-yl)benzonitrile] | 262 to 266 °C | 98%
Cc1cccc(-c2cnc(-n3cc(S(C)(=O)=O)c4ccc(C(=O)N5CCNC(=O)C5)cc43)nc2)c1 [Example 151, 4-(3-(Methylsulfonyl)-1-(5-(m-tolyl)pyrimidin-2-yl)-1H-indole-6-carbonyl)piperazin-2-one] | 283 to 287 °C | 91%
C[S+]([O-])c1cn(-c2ncc(-c3nccs3)cn2)c2cc(C(=O)N3CCOCC3)ccc12 (stereo not drawn) [Example 211, (3-(Methylsulfinyl)-1-(5-(thiazol-2-yl)pyrimidin-2-yl)-1H-indol-6-yl)(morpholino)methanone] | 235 to 237 °C | 85%
COC(=O)c1cccc(-c2cnc(-n3cc([S+](C)[O-])c4ccc(C(=O)N5CCOCC5)cc43)nc2)c1 (stereo not drawn) [Example 192, Methyl 3-(2-(3-(methylsulfinyl)-6-(morpholine-4-carbonyl)-1H-indol-1-yl)pyrimidin-5-yl)benzoate] | 217 to 220 °C | 112%
C[S+]([O-])c1cn(-c2ncc(-c3ccc(C(=O)O)cc3)cn2)c2cc(C(=O)N3CCOCC3)ccc12 (stereo not drawn) [Example 191, 4-(2-(3-(Methylsulfinyl)-6-(morpholine-4-carbonyl)-1H-indol-1-yl)pyrimidin-5-yl)benzoic acid] | 219 to 223 °C | 85%
C[S+]([O-])c1cn(-c2ncc(-c3ccc(F)cc3F)cn2)c2cc(C(=O)N3CCOCC3)ccc12 (stereo not drawn) [Example 18, (1-(5-(2,4-Difluorophenyl)pyrimidin-2-yl)-3-(methylsulfinyl)-1H-indol-6-yl)(morpholino)methanone] | 230 to 233 °C | 91%
C[S+]([O-])c1cn(-c2ncc(-c3ccnc(O)c3)cn2)c2cc(C(=O)N3CCOCC3)ccc12 (stereo not drawn) [Example 143, (1-(5-(2-Hydroxypyridin-4-yl)pyrimidin-2-yl)-3-(methylsulfinyl)-1H-indol-6-yl)(morpholino)methanone] | 262 to 265 °C | 65%
C[S+]([O-])c1cn(-c2ncc(-c3cscn3)cn2)c2cc(C(=O)N3CCOCC3)ccc12 (stereo not drawn) [Example 145, (3-(Methylsulfinyl)-1-(5-(thiazol-4-yl)pyrimidin-2-yl)-1H-indol-6-yl)(morpholino)methanone] | 254 to 257 °C | 83%
C[S+]([O-])c1cn(-c2ncc(-c3cccc(Cl)c3)cn2)c2cc(C(=O)N3CCOCC3)ccc12 (stereo not drawn) [Example 194, (1-(5-(3-Chlorophenyl)pyrimidin-2-yl)-3-(methylsulfinyl)-1H-indol-6-yl)(morpholino)methanone] | 211 to 213 °C | 92%
Cc1cc(-c2cnc(-n3cc([S+](C)[O-])c4ccc(C(=O)N5CCOCC5)cc43)nc2)ccn1 (stereo not drawn) [Example 186, (1-(5-(2-Methylpyridin-4-yl)pyrimidin-2-yl)-3-(methylsulfinyl)-1H-indol-6-yl)(morpholino)methanone] | 230 to 232 °C | 74%
C[S+]([O-])c1cn(-c2ncc(-c3cc(O)ccn3)cn2)c2cc(C(=O)N3CCOCC3)ccc12 (stereo not drawn) [Example 147, (1-(5-(4-Hydroxypyridin-2-yl)pyrimidin-2-yl)-3-(methylsulfinyl)-1H-indol-6-yl)(morpholino)methanone] | 272 to 276 °C | 67%
C[S+]([O-])c1cn(-c2ncc(-c3ccccc3)cn2)c2cc(C(=O)N3CCOCC3)ccc12 (stereo not drawn) [Example 4, (3-(Methylsulfinyl)-1-(5-phenylpyrimidin-2-yl)-1H-indol-6-yl)(morpholino) methanone] | 239 to 242 °C | 82%

More lines, now with the values ahead:

melting point | inhibition at 1 µM [1] | SMILES
247 to 252 °C | 88% | CS(=O)(=O)c1cn(-c2ncc(-c3ccc(F)cc3F)cn2)c2cc(C(=O)N3CCOCC3)ccc12 [Example 6, (1-(5-(2,4-Difluorophenyl)pyrimidin-2-yl)-3-(methylsulfonyl)-1H-indol-6-yl)(morpholino)methanone]
206 to 210 °C | 41% | CS(=O)(=O)c1cn(-c2ncc(-c3ccccc3F)cn2)c2cc(C(=O)N3CCNCC3)ccc12 [Example 24, (1-(5-(2-Fluorophenyl)pyrimidin-2-yl)-3-(methylsulfonyl)-1H-indol-6-yl)(piperazin-1-yl)methanone]
293 to 295 °C | 90% | COc1ccc(F)c(-c2cnc(-n3cc(S(C)(=O)=O)c4ccc(C(=O)N5CCNC(=O)C5)cc43)nc2)c1 [Example 152, 4-(1-(5-(2-Fluoro-5-methoxyphenyl)pyrimidin-2-yl)-3-(methylsulfonyl)-1H-indole-6-carbonyl)piperazin-2-one]
279 to 283 °C | 41% | CS(=O)(=O)c1cn(-c2ncc(-c3cc(C#N)ccc3F)cn2)c2cc(C(=O)N3CCNCC3)ccc12 [Example 26, 4-Fluoro-3-(2-(3-(methylsulfonyl)-6-(piperazine-1-carbonyl)-1H-indol-1-yl)pyrimidin-5-yl)benzonitrile]
193 to 197 °C | 33% | C[S+]([O-])c1cn(-c2ncc(-c3ccccc3)cn2)c2cc(C(=O)N3CCNCC3)ccc12 (stereo not drawn) [Example 12, (3-(Methylsulfinyl)-1-(5-phenylpyrimidin-2-yl)-1H-indol-6-yl)(piperazin-1-yl)methanone]
263 to 266 °C | 88% | CS(=O)(=O)c1cn(-c2ncc(-c3ccc(C(N)=O)cc3F)cn2)c2cc(C(=O)N3CCOCC3)ccc12 [Example 7, 3-Fluoro-4-(2-(3-(methylsulfonyl)-6-(morpholine-4-carbonyl)-1H-indol-1-yl)pyrimidin-5-yl)benzamide]
199 to 203 °C | 51% | C[S+]([O-])c1cn(-c2ncc(-c3ccccc3F)cn2)c2cc(C(=O)N3CCNCC3)ccc12 (stereo not drawn) [Example 13, (1-(5-(2-Fluorophenyl)pyrimidin-2-yl)-3-(methylsulfinyl)-1H-indol-6-yl)(piperazin-1-yl)methanone]
198 to 201 °C | 38% | C[S+]([O-])c1cn(-c2ncc(-c3ccc(F)cc3F)cn2)c2cc(C(=O)N3CCNCC3)ccc12 (stereo not drawn) [Example 14, (1-(5-(2,4-Difluorophenyl)pyrimidin-2-yl)-3-(methylsulfinyl)-1H-indol-6-yl)(piperazin-1-yl)methanone]
270 to 274 °C | 74% | CS(=O)(=O)c1cn(-c2ncc(-c3ccccc3)cn2)c2cc(C(=O)N3CCOCC3)ccc12 [Example 10, (3-(Methylsulfonyl)-1-(5-phenylpyrimidin-2-yl)-1H-indol-6-yl)(morpholino) methanone]
